Laboratory results taken from PubChem BioAssay (NCI).
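Growth conditions: 96-well plates. Treatment: test compound, 48 hours, 5 concentrations. Analysis: linear interpolation between bracketing concentrations; unreached endpoints set to highest concentration. At the TGI there is no net growth.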

What was measured:
Test in all cases: growth of human tumour cells (NCI), 48 h
HOP-18 NSCLC = system: HOP-18 NSCLC
XF 498 CNS = system: XF 498 CNS
SW-620 colon = system: SW-620 colon
786-0 renal = system: 786-0 renal
UO-31 renal = system: UO-31 renal
OVCAR-5 ovarian = system: OVCAR-5 ovarian
NCI-H23 lung = system: NCI-H23 lung
KM12 colon = system: KM12 colon
HOP-62 NSCLC = system: HOP-62 NSCLC
DMS 273 small cell lung = system: DMS 273 small cell lung
SNB-75 CNS = system: SNB-75 CNS
CCRF-CEM leukemia = system: CCRF-CEM leukemia
SK-MEL-2 melanoma = system: SK-MEL-2 melanoma
SF-268 CNS = system: SF-268 CNS
CAKI-1 renal = system: CAKI-1 renal
COLO 205 colon = system: COLO 205 colon
HL-60(TB) leukemia = system: HL-60(TB) leukemia
SF-295 CNS = system: SF-295 CNS
RXF 393 renal = system: RXF 393 renal
OVCAR-3 ovarian = system: OVCAR-3 ovarian
MOLT-4 leukemia = system: MOLT-4 leukemia
MALME-3M melanoma = system: MALME-3M melanoma
SK-MEL-28 melanoma = system: SK-MEL-28 melanoma
SK-OV-3 ovarian = system: SK-OV-3 ovarian
SF-539 CNS = system: SF-539 CNS
KM20L2 colon = system: KM20L2 colon
A549 NSCLC = system: A549 NSCLC
M14 melanoma = system: M14 melanoma
OVCAR-4 ovarian = system: OVCAR-4 ovarian
HOP-92 NSCLC = system: HOP-92 NSCLC
HCT-15 colon = system: HCT-15 colon
LXFL 529 NSCLC = system: LXFL 529 NSCLC
UACC-257 melanoma = system: UACC-257 melanoma
RPMI-8226 leukemia = system: RPMI-8226 leukemia
DLD-1 colon = system: DLD-1 colon
LOX IMVI melanoma = system: LOX IMVI melanoma
U251 CNS = system: U251 CNS
SNB-78 CNS = system: SNB-78 CNS
NCI-H460 lung = system: NCI-H460 lung
K-562 leukemia = system: K-562 leukemia
A498 renal = system: A498 renal
HCC-2998 colon = system: HCC-2998 colon
ACHN renal = system: ACHN renal
M19-MEL melanoma = system: M19-MEL melanoma
SK-MEL-5 melanoma = system: SK-MEL-5 melanoma
UACC-62 melanoma = system: UACC-62 melanoma
HT29 colon = system: HT29 colon
SN12C renal = system: SN12C renal
IGROV1 ovarian = system: IGROV1 ovarian
NCI-H226 lung = system: NCI-H226 lung
NCI-H522 lung = system: NCI-H522 lung
HCT-116 colon = system: HCT-116 colon
SNB-19 CNS = system: SNB-19 CNS
OVCAR-8 ovarian = system: OVCAR-8 ovarian
DMS 114 small cell lung = system: DMS 114 small cell lung
TK-10 renal = system: TK-10 renal
EKVX NSCLC = system: EKVX NSCLC
SR leukemia = system: SR leukemia

Measured: TGI

O=C(OCc1ccccc1)N1N=NC2C1C1CC(OCc3ccccc3)(OCc3ccccc3)C2O1 (stereo not drawn)
> 100 µM: HOP-18 NSCLC | XF 498 CNS | SW-620 colon | 786-0 renal | UO-31 renal | OVCAR-5 ovarian | NCI-H23 lung | KM12 colon | HOP-62 NSCLC | DMS 273 small cell lung | SNB-75 CNS | CCRF-CEM leukemia | SK-MEL-2 melanoma | SF-268 CNS | CAKI-1 renal | COLO 205 colon | HL-60(TB) leukemia | SF-295 CNS | RXF 393 renal | OVCAR-3 ovarian | MOLT-4 leukemia | MALME-3M melanoma | SK-MEL-28 melanoma | SK-OV-3 ovarian | SF-539 CNS | KM20L2 colon | A549 NSCLC | M14 melanoma | OVCAR-4 ovarian | HOP-92 NSCLC | HCT-15 colon | LXFL 529 NSCLC | UACC-257 melanoma | RPMI-8226 leukemia | DLD-1 colon | LOX IMVI melanoma | U251 CNS | SNB-78 CNS | NCI-H460 lung | K-562 leukemia | A498 renal | HCC-2998 colon | ACHN renal | M19-MEL melanoma | SK-MEL-5 melanoma | UACC-62 melanoma | HT29 colon | SN12C renal | IGROV1 ovarian | NCI-H226 lung

CSc1nc2c(nc(N)n2C2OC(CO)C(O)C(O)C2O)c(=O)n1C (stereo not drawn)
> 100 µM: HOP-18 NSCLC | XF 498 CNS | SW-620 colon | 786-0 renal | UO-31 renal | NCI-H23 lung | KM12 colon | NCI-H522 lung | HCT-116 colon | HOP-62 NSCLC | SNB-19 CNS | SNB-75 CNS | CCRF-CEM leukemia | SF-268 CNS | CAKI-1 renal | COLO 205 colon | HL-60(TB) leukemia | SF-295 CNS | RXF 393 renal | OVCAR-3 ovarian | MOLT-4 leukemia | MALME-3M melanoma | SK-MEL-28 melanoma | OVCAR-8 ovarian | SK-OV-3 ovarian | SF-539 CNS | KM20L2 colon | A549 NSCLC | M14 melanoma | OVCAR-4 ovarian | HOP-92 NSCLC | DMS 114 small cell lung | TK-10 renal | LXFL 529 NSCLC | UACC-257 melanoma | DLD-1 colon | LOX IMVI melanoma | U251 CNS | SNB-78 CNS | NCI-H460 lung | K-562 leukemia | EKVX NSCLC | A498 renal | HCC-2998 colon | ACHN renal | SR leukemia | M19-MEL melanoma | SK-MEL-5 melanoma | UACC-62 melanoma | HT29 colon | SN12C renal | IGROV1 ovarian | NCI-H226 lung
